Measurements from ChEMBL document CHEMBL4715724, “Novel 5-substituted-2-anilinoquinolines with 3-(morpholino or 4-methylpiperazin-1-yl)propoxy moiety as broad spectrum antiproliferative agents: Synthesis, cell based assays and kinase screening” (Bioorg Med Chem Lett, 2016).

Experiments:
Type in all cases: functional
CCRF-CEM = test: cells; conditions: Homo sapiens, time 48 hrs
Description: Growth inhibition of human CCRF-CEM cells incubated for 48 hrs by sulforhodamine B assay

K562 = test: cells; conditions: Homo sapiens, time 48 hrs
Description: Growth inhibition of human K562 cells incubated for 48 hrs by sulforhodamine B assay

SR = test: cells; conditions: Homo sapiens, time 48 hrs
Description: Growth inhibition of human SR cells incubated for 48 hrs by sulforhodamine B assay

A549 = test: cells; conditions: Homo sapiens, time 48 hrs
Description: Growth inhibition of human A549/ATCC cells incubated for 48 hrs by sulforhodamine B assay

HOP-62 = test: cells; conditions: Homo sapiens, time 48 hrs
Description: Growth inhibition of human HOP-62 cells incubated for 48 hrs by sulforhodamine B assay

HOP-92 = test: cells; conditions: Homo sapiens, time 48 hrs
Description: Growth inhibition of human HOP-92 cells incubated for 48 hrs by sulforhodamine B assay

NCI-H226 = test: cells; conditions: Homo sapiens, time 48 hrs
Description: Growth inhibition of human NCI-H226 cells incubated for 48 hrs by sulforhodamine B assay

NCI-H23 = test: cells; conditions: Homo sapiens, time 48 hrs
Description: Growth inhibition of human NCI-H23 cells incubated for 48 hrs by sulforhodamine B assay

NCI-H322M = test: cells; conditions: Homo sapiens, time 48 hrs
Description: Growth inhibition of human NCI-H322M cells incubated for 48 hrs by sulforhodamine B assay

NCI-H460 = test: cells; conditions: Homo sapiens, time 48 hrs
Description: Growth inhibition of human NCI-H460 cells incubated for 48 hrs by sulforhodamine B assay

NCI-H522 = test: cells; conditions: Homo sapiens, time 48 hrs
Description: Growth inhibition of human NCI-H522 cells incubated for 48 hrs by sulforhodamine B assay

HCT-116 = test: cells; conditions: Homo sapiens, time 48 hrs
Description: Growth inhibition of human HCT-116 cells incubated for 48 hrs by sulforhodamine B assay

HCT-15 = test: cells; conditions: Homo sapiens, time 48 hrs
Description: Growth inhibition of human HCT-15 cells incubated for 48 hrs by sulforhodamine B assay

HT-29 = test: cells; conditions: Homo sapiens, time 48 hrs
Description: Growth inhibition of human HT-29 cells incubated for 48 hrs by sulforhodamine B assay

KM12 = test: cells; conditions: Homo sapiens, time 48 hrs
Description: Growth inhibition of human KM12 cells incubated for 48 hrs by sulforhodamine B assay

SF-295 = test: cells; conditions: Homo sapiens, time 48 hrs
Description: Growth inhibition of human SF-295 cells incubated for 48 hrs by sulforhodamine B assay

SNB-75 = test: cells; conditions: Homo sapiens, time 48 hrs
Description: Growth inhibition of human SNB-75 cells incubated for 48 hrs by sulforhodamine B assay

U-251 = test: cells; conditions: Homo sapiens, time 48 hrs
Description: Growth inhibition of human U-251 cells incubated for 48 hrs by sulforhodamine B assay

LOX IMVI = test: cells; conditions: Homo sapiens, time 48 hrs
Description: Growth inhibition of human LOX IMVI cells incubated for 48 hrs by sulforhodamine B assay

SK-MEL-28 = test: cells; conditions: Homo sapiens, time 48 hrs
Description: Growth inhibition of human SK-MEL-28 cells incubated for 48 hrs by sulforhodamine B assay

UACC-257 = test: cells; conditions: Homo sapiens, time 48 hrs
Description: Growth inhibition of human UACC-257 cells incubated for 48 hrs by sulforhodamine B assay

UACC-62 = test: cells; conditions: Homo sapiens, time 48 hrs
Description: Growth inhibition of human UACC-62 cells incubated for 48 hrs by sulforhodamine B assay

IGROV-1 = test: cells; conditions: Homo sapiens, time 48 hrs
Description: Growth inhibition of human IGROV-1 cells incubated for 48 hrs by sulforhodamine B assay

OVCAR-3 = test: cells; conditions: Homo sapiens, time 48 hrs
Description: Growth inhibition of human OVCAR-3 cells incubated for 48 hrs by sulforhodamine B assay

OVCAR-4 = test: cells; conditions: Homo sapiens, time 48 hrs
Description: Growth inhibition of human OVCAR-4 cells incubated for 48 hrs by sulforhodamine B assay

OVCAR-8 = test: cells; conditions: Homo sapiens, time 48 hrs
Description: Growth inhibition of human OVCAR-8 cells incubated for 48 hrs by sulforhodamine B assay

A498 = test: cells; conditions: Homo sapiens, time 48 hrs
Description: Growth inhibition of human A498 cells incubated for 48 hrs by sulforhodamine B assay

RXF 393 = test: cells; conditions: Homo sapiens, time 48 hrs
Description: Growth inhibition of human RXF 393 cells incubated for 48 hrs by sulforhodamine B assay

TK-10 = test: cells; conditions: Homo sapiens, time 48 hrs
Description: Growth inhibition of human TK-10 cells incubated for 48 hrs by sulforhodamine B assay

UO-31 = test: cells; conditions: Homo sapiens, time 48 hrs
Description: Growth inhibition of human UO-31 cells incubated for 48 hrs by sulforhodamine B assay

PC-3 = test: cells; conditions: Homo sapiens, time 48 hrs
Description: Growth inhibition of human PC-3 cells incubated for 48 hrs by sulforhodamine B assay

MCF7 = test: cells; conditions: Homo sapiens, time 48 hrs
Description: Growth inhibition of human MCF7 cells incubated for 48 hrs by sulforhodamine B assay

MDA-MB-231 = test: cells; conditions: Homo sapiens, time 48 hrs
Description: Growth inhibition of human MDA-MB-231/ATCC cells incubated for 48 hrs by sulforhodamine B assay

Hs-578T = test: cells; conditions: Homo sapiens, time 48 hrs
Description: Growth inhibition of human Hs-578T cells incubated for 48 hrs by sulforhodamine B assay

MDA-MB-468 = test: cells; conditions: Homo sapiens, time 48 hrs
Description: Growth inhibition of human MDA-MB-468 cells incubated for 48 hrs by sulforhodamine B assay

[1] = tested on: Panel leukemia (Carcinoma cell lines); test: cells; conditions: Homo sapiens, time 48 hrs
Description: Growth inhibition of human Panel leukemia (Carcinoma cell lines) incubated for 48 hrs by sulforhodamine B assay

cells = conditions: Homo sapiens, Non-small cell lung cancer cell line; time 48 hrs
Description: Growth inhibition of human Non-small cell lung cancer cell line incubated for 48 hrs by sulforhodamine B assay

[2] = tested on: Panel colon (Carcinoma cell lines); test: cells; conditions: Homo sapiens, time 48 hrs
Description: Growth inhibition of human Panel colon (Carcinoma cell lines) incubated for 48 hrs by sulforhodamine B assay

[3] = tested on: Panel CNS (Carcinoma cell lines); test: cells; conditions: Homo sapiens, time 48 hrs
Description: Growth inhibition of human Panel CNS (Carcinoma cell lines) incubated for 48 hrs by sulforhodamine B assay

[4] = tested on: Panel melanoma (Carcinoma cell lines); test: cells; conditions: Homo sapiens, time 48 hrs
Description: Growth inhibition of human Panel melanoma (Carcinoma cell lines) incubated for 48 hrs by sulforhodamine B assay

[5] = tested on: Panel ovarian (Carcinoma cell lines); test: cells; conditions: Homo sapiens, time 48 hrs
Description: Growth inhibition of human Panel ovarian (Carcinoma cell lines) incubated for 48 hrs by sulforhodamine B assay

[6] = tested on: Panel renal (Carcinoma cell lines); test: cells; conditions: Homo sapiens, time 48 hrs
Description: Growth inhibition of human Panel renal (Carcinoma cell lines) incubated for 48 hrs by sulforhodamine B assay

[7] = tested on: Panel prostate (Carcinoma cell lines); test: cells; conditions: Homo sapiens, time 48 hrs
Description: Growth inhibition of human Panel prostate (Carcinoma cell lines) incubated for 48 hrs by sulforhodamine B assay

[8] = tested on: Panel breast (Carcinoma cell lines); test: cells; conditions: Homo sapiens, time 48 hrs
Description: Growth inhibition of human Panel breast (Carcinoma cell lines) incubated for 48 hrs by sulforhodamine B assay

[9] = tested on: Panel NCI-60 (60 carcinoma cell lines); test: cells; conditions: Homo sapiens, time 48 hrs
Description: Growth inhibition of human Panel NCI-60 (60 carcinoma cell lines) incubated for 48 hrs by sulforhodamine B assay

[10] = read-out: LC50 (the source's name)

## CC(C)c1ccc(Nc2ccc3c(OCCCN4CCN(C)CC4)cccc3n2)cc1
CCRF-CEM
  GI50: 3.74 µM
K562
  GI50: 2.05 µM
SR
  GI50: 2.85 µM
A549
  GI50: 15.6 µM
HOP-62
  GI50: 11.9 µM
HOP-92
  GI50: 10.6 µM
NCI-H226
  GI50: 18.8 µM
NCI-H23
  GI50: 11.9 µM
NCI-H322M
  GI50: 11 µM
NCI-H460
  GI50: 5.44 µM
NCI-H522
  GI50: 19.9 µM
HCT-116
  GI50: 5.9 µM
HCT-15
  GI50: 1.94 µM
HT-29
  GI50: 2.16 µM
KM12
  GI50: 11.3 µM
SF-295
  GI50: 3.63 µM
SNB-75
  GI50: 12.8 µM
U-251
  GI50: 3.28 µM
LOX IMVI
  GI50: 1.86 µM
SK-MEL-28
  GI50: 1.89 µM
UACC-257
  GI50: 5.65 µM
UACC-62
  GI50: 2.17 µM
IGROV-1
  GI50: 16.1 µM
OVCAR-3
  GI50: 14.4 µM
OVCAR-4
  GI50: 13.9 µM
OVCAR-8
  GI50: 17.8 µM
A498
  GI50: 16.4 µM
RXF 393
  GI50: 7.28 µM
TK-10
  GI50: 16.5 µM
UO-31
  GI50: 12.9 µM
PC-3
  GI50: 12.9 µM
MCF7
  GI50: 3.21 µM
MDA-MB-231
  GI50: 2.11 µM
Hs-578T
  GI50: 16.9 µM
MDA-MB-468
  GI50: 12.3 µM
[1]
  GI50: 4.24 µM
cells
  GI50: 13.2 µM
[2]
  GI50: 4.85 µM
[3]
  GI50: 9.25 µM
[4]
  GI50: 6.62 µM
[5]
  GI50: 15.6 µM
[6]
  GI50: 13.2 µM
[7]
  GI50: 13.4 µM
[8]
  GI50: 9.95 µM
[9]
  GI50: 7.76 µM

## Fc1cc(Nc2ccc3c(OCCCN4CCOCC4)cccc3n2)ccc1Cl
CCRF-CEM
  GI50: 2.48 µM
K562
  GI50: 1.91 µM
SR
  GI50: 1.69 µM
A549
  GI50: 2.96 µM
HOP-62
  GI50: 1.71 µM
HOP-92
  GI50: 2.4 µM
NCI-H226
  GI50: 2.76 µM
NCI-H23
  GI50: 2.21 µM
NCI-H322M
  GI50: 2.53 µM
NCI-H460
  GI50: 3.07 µM
NCI-H522
  GI50: 1.72 µM
HCT-116
  GI50: 2.76 µM
HCT-15
  GI50: 1.4 µM
HT-29
  GI50: 1.53 µM
KM12
  GI50: 2.3 µM
SF-295
  GI50: 1.97 µM
SNB-75
  GI50: 1.86 µM
U-251
  GI50: 1.85 µM
LOX IMVI
  GI50: 1.71 µM
SK-MEL-28
  GI50: 1.82 µM
UACC-257
  GI50: 2.18 µM
UACC-62
  GI50: 2.32 µM
IGROV-1
  GI50: 3.19 µM
OVCAR-3
  GI50: 3.08 µM
OVCAR-4
  GI50: 3.75 µM
OVCAR-8
  GI50: 4.03 µM
A498
  GI50: 2.42 µM
RXF 393
  GI50: 2.16 µM
TK-10
  GI50: 2.01 µM
UO-31
  GI50: 1.65 µM
PC-3
  GI50: 2.08 µM
MCF7
  GI50: 1.68 µM
MDA-MB-231
  GI50: 1.53 µM
Hs-578T
  GI50: 2.19 µM
MDA-MB-468
  GI50: 2.08 µM
[1]
  GI50: 2.18 µM
cells
  GI50: 2.41 µM
[2]
  GI50: 1.97 µM
[3]
  GI50: 2.16 µM
[4]
  GI50: 2.01 µM
[5]
  GI50: 3.07 µM
[6]
  GI50: 2.42 µM
[7]
  GI50: 2.85 µM
[8]
  GI50: 2.48 µM
[9]
  GI50: 2.24 µM

## Clc1cc(Cl)cc(Nc2ccc3c(OCCCN4CCOCC4)cccc3n2)c1
CCRF-CEM
  GI50: 2.36 µM
K562
  GI50: 2.21 µM
A549
  GI50: 2.6 µM
HOP-62
  GI50: 2.29 µM
HOP-92
  GI50: 2.03 µM
NCI-H226
  GI50: 3.16 µM
NCI-H23
  GI50: 2.94 µM
NCI-H322M
  GI50: 2.51 µM
NCI-H460
  GI50: 2.43 µM
NCI-H522
  GI50: 1.82 µM
HCT-116
  GI50: 1.82 µM
HCT-15
  GI50: 1.75 µM
HT-29
  GI50: 1.76 µM
KM12
  GI50: 2 µM
SF-295
  GI50: 1.92 µM
U-251
  GI50: 1.98 µM
LOX IMVI
  GI50: 1.72 µM
SK-MEL-28
  GI50: 1.65 µM
UACC-257
  GI50: 2.05 µM
UACC-62
  GI50: 2.01 µM
IGROV-1
  GI50: 3.9 µM
OVCAR-3
  GI50: 2.92 µM
OVCAR-4
  GI50: 10.3 µM
OVCAR-8
  GI50: 3.54 µM
A498
  GI50: 2.39 µM
RXF 393
  GI50: 2.26 µM
TK-10
  GI50: 2.38 µM
UO-31
  GI50: 1.51 µM
PC-3
  GI50: 1.94 µM
MCF7
  GI50: 1.74 µM
MDA-MB-231
  GI50: 1.8 µM
Hs-578T
  GI50: 2.51 µM
MDA-MB-468
  GI50: 2.08 µM
[1]
  GI50: 2.35 µM
cells
  GI50: 2.53 µM
[2]
  GI50: 1.83 µM
[3]
  GI50: 2.18 µM
[4]
  GI50: 3.02 µM
[5]
  GI50: 4.02 µM
[6]
  GI50: 3.96 µM
[7]
  GI50: 2.49 µM
[8]
  GI50: 3.33 µM
[9]
  GI50: 2.57 µM

## CN1CCN(CCCOc2cccc3nc(Nc4ccc(Cl)c(F)c4)ccc23)CC1
K562
  GI50: 1.47 µM
A549
  GI50: 1.96 µM
HOP-62
  GI50: 1.45 µM
HOP-92
  GI50: 1.33 µM
NCI-H226
  GI50: 2.05 µM
NCI-H23
  GI50: 1.75 µM
NCI-H322M
  GI50: 1.7 µM
NCI-H460
  GI50: 1.91 µM
NCI-H522
  GI50: 1.75 µM
HCT-116
  GI50: 1.56 µM
HCT-15
  GI50: 1.4 µM
HT-29
  GI50: 1.41 µM
KM12
  GI50: 1.77 µM
SF-295
  GI50: 1.79 µM
U-251
  GI50: 1.81 µM
LOX IMVI
  GI50: 1.64 µM
SK-MEL-28
  GI50: 1.72 µM
UACC-257
  GI50: 2.04 µM
UACC-62
  GI50: 2.05 µM
IGROV-1
  GI50: 1.95 µM
OVCAR-3
  GI50: 1.7 µM
OVCAR-4
  GI50: 3.13 µM
OVCAR-8
  GI50: 2.02 µM
A498
  GI50: 2.39 µM
RXF 393
  GI50: 1.96 µM
TK-10
  GI50: 1.81 µM
UO-31
  GI50: 1.57 µM
PC-3
  GI50: 1.76 µM
MCF7
  GI50: 1.31 µM
MDA-MB-231
  GI50: 1.68 µM
Hs-578T
  GI50: 2.12 µM
MDA-MB-468
  GI50: 1.72 µM
[1]
  GI50: 1.9 µM
  LC50 (50% lethal concentration): 53.9 µM
  TGI: 4.28 µM
cells
  GI50: 1.75 µM
  LC50 (50% lethal concentration): 9.98 µM
  TGI: 3.88 µM
[2]
  GI50: 1.62 µM
  TGI: 3.17 µM
[2]; [10]
  CC50: 6.21 µM
[3]
  GI50: 1.74 µM
  TGI: 3.35 µM
[3]; [10]
  CC50: 6.46 µM
[4]
  GI50: 1.82 µM
  LC50: 6.77 µM
  TGI: 3.5 µM
[5]
  GI50: 1.99 µM
  LC50: 11.3 µM
  TGI: 4.87 µM
[6]
  GI50: 2.22 µM
  LC50 (lethal concentration 50%): 19.8 µM
  TGI: 6.21 µM
[7]
  GI50: 1.76 µM
  LC50 (concentration killing 50% of cells): 6.21 µM
  TGI: 2.8 µM
[8]
  GI50: 1.84 µM
  TGI: 4.5 µM
[8]; [10]
  CC50: 13.2 µM
[9]
  GI50: 1.82 µM
  TGI: 3.89 µM
[9]; [10]
  CC50: 9.12 µM

## COc1cc2ncnc(Nc3ccc(F)c(Cl)c3)c2cc1OCCCN1CCOCC1 [GEFITINIB]
[1]
  GI50: 3.54 µM
